Measured values: US8796256B2 (Janssen Pharmaceutica NV, priority 2010, dated 2014)

Target: T1, ERR1 (also known as ERR-α or ERR-1) (Homo sapiens, UniProt P11474)
T1 sequence (P11474 193-421 limits assumed): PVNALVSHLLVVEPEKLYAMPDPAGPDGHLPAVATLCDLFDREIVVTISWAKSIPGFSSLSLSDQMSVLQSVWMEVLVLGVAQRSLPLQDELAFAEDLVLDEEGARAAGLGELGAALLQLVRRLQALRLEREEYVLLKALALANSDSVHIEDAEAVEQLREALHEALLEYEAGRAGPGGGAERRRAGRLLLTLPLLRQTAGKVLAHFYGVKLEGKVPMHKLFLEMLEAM
Assay: TR-FRET assay (disruption of co-activator peptide binding to ERR1 LBD)
Type: biochemical
Conditions: 6 nM 6His-ERR1LBD, 6 nM GST-SRC-2 peptide; average of 3 independent experiments
Outline: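 Homogeneous TR-FRET measuring displacement of GST-hSRC2 co-activator peptide (6 nM) from His-tagged ERR1 LBD (6 nM), detected with α-GST Eu cryptate (30 nM) and α-His-XL665 (7.5 nM). Buffer 25 mM Tris pH 8, 2.5 mM Hepes, 20 mM KCl, 1 mM DTT, 0.05 mg/mL delipidated BSA; equilibration 4-18 h at 25° C. Hyperbolic dose-response fit, mean of 3 experiments.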

SMILES | EC50
CN(C)CCCN1C(=O)S/C(=C\c2ccc3c(cnn3Cc3ccc(C(F)(F)F)cc3C(F)(F)F)c2)C1=O [Compound 6, (5Z)-5-[(1-{[2,4-Bis(trifluoromethyl)-phenyl]methyl}-1H-indazol-5-yl)methylidene]-3-[3-(dimethylamino)-propyl]-1,3-thiazolidine-2,4-dione] | 35 nM
CC(C)[C@H](N)CN1C(=O)S/C(=C\c2ccc3c(cnn3Cc3ccc(Cl)cc3C(F)(F)F)c2)C1=O [Compound 162, (5Z)-3-[(2S)-2-Amino-3-methylbutyl]-5-({1-[4-chloro-2-(trifluoromethyl)benzyl]-1H-indazol-5-yl}methylidene)-1,3-thiazolidine-2,4-dione] | 32 nM
O=C1S/C(=C\c2ccc3c(cnn3Cc3ccc(Cl)cc3C(F)(F)F)c2)C(=O)N1CC(O)CO (stereo not shown) [Compound 43, (5Z)-5-({1-[4-Chloro-2-(trifluoromethyl)benzyl]-1H-indazol-5-yl}methylidene)-3-(2,3-dihydroxypropyl)-1,3-thiazolidine-2,4-dione] | 16 nM
O=C1S/C(=C\c2ccc3c(cnn3Cc3ccc(Cl)cc3C(F)(F)F)c2)C(=O)N1C1CCCNC1 (stereo not shown) [Compound 124, (5Z)-5-({1-[4-Chloro-2-(trifluoromethyl)benzyl]-1H-indazol-5-yl}methylidene)-3-piperidin-3-yl-1,3-thiazolidine-2,4-dione] | 51 nM
O=C1S/C(=C\c2ccc3c(cnn3Cc3ccc(Cl)cc3C(F)(F)F)c2)C(=O)N1CCN1CCC1 [Compound 120, (5Z)-3-(2-Azetidin-1-ylethyl)-5-({1-[4-chloro-2-(trifluoromethyl)benzyl]-1H-indazol-5-yl}methylidene)-1,3-thiazolidine-2,4-dione] | 220 nM
O=C1S/C(=C\c2ccc3c(cnn3Cc3ccc(Cl)cc3C(F)(F)F)c2)C(=O)N1CC1COS(=O)(=O)N1 (stereo not shown) [Compound 409, (5Z)-5-({1-[4-Chloro-2-(trifluoromethyl)benzyl]-1H-indazol-5-yl}methylidene)-3-[(2,2-dioxido-1,2,3-oxathiazolidin-4-yl)methyl]-1,3-thiazolidine-2,4-dione] | > 10000 nM
CS(=O)(=O)NN1C(=O)S/C(=C\c2cc3cnn(Cc4ccc(Cl)cc4C(F)(F)F)c3cc2F)C1=O [Compound 371, N-[(5Z)-5-({1-[4-Chloro-2-(trifluoromethyl)benzyl]-6-fluoro-1H-indazol-5-yl}methylidene)-2,4-dioxo-1,3-thiazolidin-3-yl]methanesulfonamide] | 9 nM
[2H]C([2H])([2H])N1CCC(F)(CN2C(=O)S/C(=C\c3ccc4c(cnn4Cc4ccc(Cl)cc4C(F)(F)F)c3)C2=O)CC1 [Compound 307, (5Z)-5-({1-[4-Chloro-2-(trifluoromethyl)benzyl]-1H-indazol-5-yl}methylidene)-3-{[4-fluoro-1-(^2H3)methylpiperidin-4-yl]methyl}-1,3-thiazolidine-2,4-dione] | 210 nM
COc1ccc(Cn2ncc3cc(/C=C4\SC(=O)N(CCN5CCC(O)CC5)C4=O)ccc32)c(C(F)(F)F)c1 [Compound 15, (5Z)-3-[2-(4-Hydroxypiperidin-1-yl)ethyl]-5-({1-[4-methoxy-2-(trifluoromethyl)benzyl]-1H-indazol-5-yl}methylidene)-1,3-thiazolidine-2,4-dione] | 62 nM
CNN1C(=O)S/C(=C\c2ccc3c(cnn3Cc3ccc(Cl)cc3C(F)(F)F)c2)C1=O [Compound 358, (5Z)-5-({1-[4-Chloro-2-(trifluoromethyl)benzyl]-1H-indazol-5-yl}methylidene)-3-(methylamino)-1,3-thiazolidine-2,4-dione] | 22 nM
O=C1S/C(=C\c2ccc3c(cnn3Cc3ccc(Cl)cc3C(F)(F)F)c2)C(=O)N1[C@@H]1CCN[C@@H](CO)C1 (relative stereo) [Compound 269, (5Z)-5-({1-[4-Chloro-2-(trifluoromethyl)benzyl]-1H-indazol-5-yl}methylidene)-3-[trans-2-(hydroxymethyl)piperidin-4-yl]-1,3-thiazolidine-2,4-dione] | 67 nM
COC(=O)CN1C(=O)S/C(=C\c2ccc3c(cnn3[C@H]3CCc4cc(Cl)ccc43)c2)C1=O [Compound 171, Methyl [(5Z)-5-({1-[(1S)-5-chloro-2,3-dihydro-1H-inden-1-yl]-1H-indazol-5-yl}methylidene)-2,4-dioxo-1,3-thiazolidin-3-yl]acetate] | 29 nM
O=C1S/C(=C\c2ccc3c(cnn3Cc3ccc(C(F)(F)F)cc3C(F)(F)F)c2)C(=O)N1C[C@@H]1CCCN2CCCC[C@H]12 [Compound 207, (5Z)-5-({1-[2,4-Bis(trifluoromethyl)benzyl]-1H-indazol-5-yl}methylidene)-3-[(1S,9aR)-octahydro-2H-quinolizin-1-ylmethyl]-1,3-thiazolidine-2,4-dione] | 192 nM
NC(=O)CN1CCC[C@@H]1CN1C(=O)S/C(=C\c2ccc3c(cnn3Cc3ccc(Cl)cc3C(F)(F)F)c2)C1=O [Compound 298, 2-[(2R)-2-{[(5Z)-5-({1-[4-Chloro-2-(trifluoromethyl)benzyl]-1H-indazol-5-yl}methylidene)-2,4-dioxo-1,3-thiazolidin-3-yl]methyl}pyrrolidin-1-yl]acetamide] | 49 nM
O=C(CN1C(=O)S/C(=C\c2ccc3c(c2)c(Cl)nn3Cc2ccc(Cl)cc2C(F)(F)F)C1=O)NS(=O)(=O)N1CCCC1 [Compound 375, 2-[(5Z)-5-({3-Chloro-1-[4-chloro-2-(trifluoromethyl)benzyl]-1H-indazol-5-yl}methylidene)-2,4-dioxo-1,3-thiazolidin-3-yl]-N-(pyrrolidin-1-ylsulfonyl)acetamide] | 70 nM
CCNCCN1C(=O)S/C(=C\c2ccc3c(cnn3Cc3ccc(Cl)cc3C(F)(F)F)c2)C1=O [Compound 47, (5Z)-5-({1-[4-Chloro-2-(trifluoromethyl)benzyl]-1H-indazol-5-yl}methylidene)-3-[2-(ethylamino)ethyl]-1,3-thiazolidine-2,4-dione] | 17 nM
NC1(CN2C(=O)S/C(=C\c3ccc4c(cnn4Cc4ccc(Cl)cc4C(F)(F)F)c3)C2=O)CCOCC1 [Compound 308, (5Z)-3-[(4-Aminotetrahydro-2H-pyran-4-yl)methyl]-5-({1-[4-chloro-2-(trifluoromethyl)benzyl]-1H-indazol-5-yl}methylidene)-1,3-thiazolidine-2,4-dione] | 5 nM
CN(C)CCN1C(=O)S/C(=C\c2ccc3c(ccn3Cc3ccc(C#N)cc3C(F)(F)F)c2)C1=O [Compound 246, 4-({5-[(Z)-{3-[2-(Dimethylamino)ethyl]-2,4-dioxo-1,3-thiazolidin-5-ylidene}methyl]-1H-indol-1-yl}methyl)-3-(trifluoromethyl)benzonitrile] | 500 nM
O=C(O)c1ccccc1CN1C(=O)S/C(=C\c2ccc3c(cnn3Cc3ccc(Cl)cc3C(F)(F)F)c2)C1=O [Compound 379, 2-{[(5Z)-5-({1-[4-Chloro-2-(trifluoromethyl)benzyl]-1H-indazol-5-yl}methylidene)-2,4-dioxo-1,3-thiazolidin-3-yl]methyl}benzoic acid] | 21 nM
O=C1S/C(=C\c2ccc3c(cnn3Cc3ccc(Cl)cc3C(F)(F)F)c2)C(=O)N1[C@@H]1CCNC[C@H]1O (relative stereo) [Compound 270, (5Z)-5-({1-[4-Chloro-2-(trifluoromethyl)-benzyl]-1H-indazol-5-yl}methylidene)-3-[trans-3-hydroxypiperidin-4-yl]-1,3-thiazolidine-2,4-dione] | 25 nM
CN1CCN(CCCN2C(=O)S/C(=C\c3ccc4c(ccn4Cc4ccc(Cl)cc4C(F)(F)F)c3)C2=O)CC1 [Compound 245, (5Z)-5-[(1-{[4-Chloro-2-(trifluoromethyl)phenyl]methyl}-1H-indol-5-yl)methylidene]-3-[3-(4-methylpiperazin-1-yl)propyl]-1,3-thiazolidine-2,4-dione] | 50 nM
O=C(O)C(CC1CCNCC1)N1C(=O)S/C(=C\c2ccc3c(cnn3Cc3ccc(Cl)cc3C(F)(F)F)c2)C1=O (stereo not shown) [Compound 228, 2-[(5Z)-5-({1-[4-Chloro-2-(trifluoromethyl)benzyl]-1H-indazol-5-yl}methylidene)-2,4-dioxo-1,3-thiazolidin-3-yl]-3-piperidin-4-ylpropanoic acid] | 49 nM
CCN1CC[C@@H](N2C(=O)S/C(=C\c3ccc4c(cnn4Cc4ccc(Cl)cc4C(F)(F)F)c3)C2=O)[C@H](F)C1 (single isomer, unassigned) [Compound 326, (5Z)-5-({1-[4-Chloro-2-(trifluoromethyl)benzyl]-1H-indazol-5-yl}methylidene)-3-[trans-1-ethyl-3-fluoropiperidin-4-yl]-1,3-thiazolidine-2,4-dione] | 140 nM
O=C1S/C(=C\c2ccc3c(cnn3Cc3ccc(Cl)cc3C(F)(F)F)c2)C(=O)N1C[C@H](O)CNCCF [Compound 295, (5Z)-5-({1-[4-Chloro-2-(trifluoromethyl)benzyl]-1H-indazol-5-yl}methylidene)-3-{(2R)-3-[(2-fluoroethyl)amino]-2-hydroxypropyl}-1,3-thiazolidine-2,4-dione] | 66 nM
CCN1CCC(N2C(=O)S/C(=C\c3ccc4c(c3)c(OC)nn4Cc3ccc(Cl)cc3C(F)(F)F)C2=O)CC1 [Compound 30, (5Z)-5-({1-[4-Chloro-2-(trifluoromethyl)benzyl]-3-methoxy-1H-indazol-5-yl}methylidene)-3-(1-ethylpiperidin-4-yl)-1,3-thiazolidine-2,4-dione] | 96 nM
